Reference: patent US6344562B1, “Thiazole derivatives” (Hoffmann-La Roche Inc., priority 1998, dated 2002)
Counter-ions that a name gives are not always drawn.

| SMILES | melting point |
| --- | --- |
| CC(C)[C@H](NC(=O)[C@H](CC(=O)O)NC(=O)CNC(=O)c1csc(NC(=O)NCc2ccccc2)n1)C(=O)O (as salt: trifluoroacetate) [Example 142, (S)-2-[(S)-2-(2-{[2-(3-benzyl-ureido)-thiazole-4-carbonyl]-amino}-acetylamino)-3-carboxy-propionylamino]-3-methyl-butyric acid] | 93 to 98 °C |
| COc1cccc(NC(=O)[C@H](CC(=O)O)NC(=O)CNC(=O)c2csc(NC(=O)NCc3ccccc3)n2)c1 [Example 134, (S)-3-[2-[[2-(3-benzyl-ureido)-thiazole-4-carbonyl]-amino]-acetylamino]-N-(3-methoxy-phenyl)-succinamic acid] | 185 °C |
| N=C(N)Nc1ncc(C(=O)Nc2cccc(C(=O)NC(CC(=O)O)c3ccccc3)c2)s1 (racemic) [Example 73, (RS)-3-[3-[(2-guanidino-thiazole-5-carbonyl)-amino]-benzoylamino]-3-phenyl-propionic acid] | 196 °C |
| CCOC(=O)CC(NC(=O)c1ccc(OC)c(NC(=O)c2sc(NC(=N)N)nc2C)c1)c1ccccc1 (racemic) [Example 78, ethyl (RS)-3-{3-[(2-guanidino-4-methyl-thiazole-5-carbonyl)-amino]-4-methoxy-benzoylamino}-3-phenyl-propionate] | 123 to 126 °C |
| CCOC(=O)CC(NC(=O)c1cccc(NC(=O)c2sc(NC(=N)N)nc2C)c1)c1ccccc1 (racemic) [Example 10, ethyl rac-3-[3-[(2-guanidino-4-methyl-thiazole-5-carbonyl)-amino]-benzoylamino]-3-phenyl-propionate] | 177 °C |
| COC(=O)CCCCCNC(=O)c1csc(NC(=O)NCc2ccccc2)n1 [Example 137, methyl 6-{[2-(3-benzyl-ureido)-thiazole-4-carbonyl]-amino}-hexanoate] | 140 °C |
| O=C(O)C[C@H](NC(=O)CNC(=O)c1csc(NC(=O)NCc2ccccc2)n1)C(=O)O (as salt: trifluoroacetate) [Example 158, (S)-2-(2-{[2-(3-benzyl-ureido)-thiazole-4-carbonyl]-amino}-acetylamino)-succinic acid] | 183 °C |
| CCOC(=O)CC(NC(=O)CCNC(=O)c1csc(NC(=N)N)n1)c1ccccc1 (racemic) [Example 24, ethyl rac-3-[3-[(2-guanidino-thiazole-4-carbonyl)-amino]-propionylamino]-3-phenyl-propionate] | 85 to 87 °C |
| O=C(O)CCNC(=O)CNC(=O)c1csc(NC(=O)NCc2ccccc2)n1 (as salt: hydrochloride) [Example 132, 3-[2-[[2-(3-benzyl-ureido)-thiazole-4-carbonyl]-amino]-acetylamino]-propionic acid] | 174 °C |
| CCOC(=O)CC(NC(=O)CCNC(=O)c1sc(NC(=N)N)nc1C)c1ccccc1 (racemic) [Example 26, ethyl rac-3-[3-[(2-guanidino-4-methyl-thiazole-5-carbonyl)-amino]-propionylamino]-3-phenyl-propionate] | 106 to 107 °C |
| N=C(N)Nc1nc(C(=O)NCCCC(CC(=O)O)c2ccccc2)cs1 (racemic) [Example 17, (RS)-6-[(2-guanidino-thiazole-4-carbonyl)-amino]-3-phenyl-hexanoic acid] | 230 °C |
| O=C(O)C[C@H](NC(=O)CNC(=O)c1csc(NC(=O)NCc2ccccn2)n1)C(=O)NCc1ccccn1 [Example 168, (S)-N-pyridin-2-ylmethyl-3-(2-{[2-(3-pyridin-2-ylmethyl-ureido)-thiazole-4-carbonyl]-amino}-acetylamino)-succinamic acid] | 164 °C |
| Cc1nc(NC(=N)N)sc1C(=O)NCCCCC(CC(=O)O)c1ccccc1 (racemic) [Example 85, (RS)-7-[(2-guanidino-4-methyl-thiazole-5-carbonyl)-amino]-3-phenyl-heptanoic acid] | 125 °C |
| CCOC(=O)CC(CCCCNC(=O)c1sc(NC(=N)N)nc1C)c1ccccc1 (racemic) [Example 84, ethyl (RS)-7-[(2-guanidino-4-methyl-thiazole-5-carbonyl)-amino]-3-phenyl-heptanoate] | 138 °C |
| CC(C)(C)OC(=O)C[C@H](NC(=O)CNC(=O)c1csc(NC(=O)NCc2ccccc2)n1)C(=O)NCc1ccccn1 [Example 161, tert-butyl (S)-3-[2-[[2-(3-benzyl-ureido)-thiazole-4-carbonyl]-amino]-acetylamino]-N-pyridin-2-ylmethyl-succinamate] | 108 °C |
| N=C(N)Nc1nc(C(=O)Nc2cccc(C(=O)NC(CC(=O)O)c3ccccc3)c2)cs1 (racemic) [Example 19, (RS)-3-{3-[(2-guanidino-thiazole-4-carbonyl)-amino]-benzoylamino}-3-phenyl-propionic acid] | 235 °C |
| CCOC(=O)CC(NC(=O)c1cccc(NC(=O)c2cnc(NC(=N)N)s2)c1)c1ccccc1 (racemic) [Example 72, ethyl (RS)-3-{3-[(2-guanidino-thiazole-5-carbonyl)-amino]-benzoylamino}-3-phenyl-propionate] | 149 °C |

| SMILES | melting point |
| --- | --- |
| CCOC(=O)CC(NC(=O)CNC(=O)c1csc(N=C2NCCN2)n1)c1cccnc1 (racemic) [Example 171, ethyl (RS)-3-(2-{[2-(imidazolidin-2-ylidenamino)-thiazole-4-carbonyl]-amino}-acetylamino)-3-pyridin-3-yl-propionate] | 198 to 199 °C |
| O=C(O)CCc1ccc(NC(=O)c2csc(NC(=O)NCc3ccccc3)n2)cc1 [Example 154, 3-[4-[[2-(3-benzyl-ureido)-thiazole-4-carbonyl]-amino]-phenyl]-propionic acid] | 233 °C |
| CC(C)(C)OC(=O)C[C@H](NC(=O)CNC(=O)c1csc(NC(=O)NCc2ccccc2)n1)C(=O)OC(C)(C)C (as salt: succinate) [Example 157, di-tert-butyl (S)-2-(2-{[2-(3-benzyl-ureido)-thiazole-4-carbonyl]-amino}-acetylamino)-succinate] | 111 to 114 °C |
| CCOC(=O)CC(CCCNC(=O)c1csc(NC(=O)NCc2ccccc2)n1)c1ccccc1 (racemic) [Example 14, ethyl (RS)-6-{[2-(3-benzyl-ureido)-thiazole-4-carbonyl]-amino}-3-phenyl-hexanoate] | 93 °C |
| O=C(O)C[C@H](NC(=O)CNC(=O)c1csc(NC(=O)NCc2ccccc2)n1)C(=O)NCc1cccnc1 (as salt: trifluoroacetate) [Example 164, (S)-3-[2-[[2-(3-benzyl-ureido)-thiazole-4-carbonyl]-amino]-acetylamino]-N-pyridin-3-ylmethyl-succinamic acid] | 135 °C |
| COC(=O)[C@H](CCCCNC(=O)c1csc(NC(=O)NCc2ccccc2)n1)NC(=O)OC(C)(C)C [Example 145, methyl (S)-6-{[2-(3-benzyl-ureido)-thiazole-4-carbonyl]-amino}-2-tert-butoxycarbonylamino-hexanoate] | 166 °C |
| O=C(O)CCCCCNC(=O)c1csc(NC(=O)NCc2ccccc2)n1 [Example 138, 6-{[2-(3-benzyl-ureido)-thiazole-4-carbonyl]-amino}-hexanoic acid] | 178 °C |
| N=C(N)Nc1nc(C(=O)NCC(=O)NC(CC(=O)O)c2ccccc2)cs1 (racemic) (as salt: hydrochloride) [Example 23, rac-3-[2-[(2-guanidino-thiazole-4-carbonyl)-amino]-acetylamino]-3-phenyl-propionic acid] | 202 to 205 °C |
| CCCc1nc(NC(=N)N)sc1-c1cccc(NC(=O)CC(CC(=O)O)c2ccccc2)c1 (racemic) [Example 92, rac-4-[3-(2-guanidino-4-propyl-thiazol-5-yl)-phenylcarbamoyl]-3-phenyl-butyric acid] | 245 to 247 °C (dec.) |
| CCOC(=O)CC(NC(=O)c1cccc(NC(=O)c2csc(NC(=N)N)n2)c1)c1ccccc1 (racemic) [Example 18, ethyl (RS)-3-[3-[(2-guanidino-thiazole-4-carbonyl)-amino]-benzoylamino]-3-phenyl-propionate] | 117 °C |
| CC(C)(C)OC(=O)N[C@@H](CCCCNC(=O)c1csc(NC(=O)NCc2ccccc2)n1)C(=O)O [Example 146, (S)-6-{[2-(3-benzyl-ureido)-thiazole-4-carbonyl]-amino}-2-tert-butoxycarbonylamino-hexanoic acid] | 138 °C |
| CC(C)[C@H](NC(=O)[C@H](CC(=O)OC(C)(C)C)NC(=O)CNC(=O)c1csc(NC(=O)NCc2ccccc2)n1)C(=O)OC(C)(C)C [Example 141, tert-butyl (S)-2-[(S)-2-[2-[[2-(3-benzyl-ureido)-thiazole-4-carbonyl]-amino]-acetylamino]-3-tert-butoxycarbonyl-propionylamino]-3-methyl-butyrate] | 108 to 111 °C |
| Cc1nc(NC(=N)N)sc1C(=O)NCCC(=O)NCCC(=O)O.Cl.Cl | 170 °C |
| CC(C)(C)OC(=O)C[C@H](NC(=O)CNC(=O)c1csc(NC(=O)NCc2ccccn2)n1)C(=O)NCc1ccccn1 [Example 167, tert-butyl (S)-N-pyridin-2-ylmethyl-3-(2-{[2-(3-pyridin-2-ylmethyl-ureido)-thiazole-4-carbonyl]-amino}-acetylamino)-succinamate] | 112 °C |
| CCOC(=O)CCNC(=O)CCNC(=O)c1csc(NC(=N)N)n1 [Example 7, ethyl 3-[3-[(2-guanidino-thiazole-4-carbonyl)-amino]-propionylamino]-propionate] | 154 to 157 °C |
| O=C(O)C[C@H](NC(=O)CNC(=O)c1csc(NC(=O)NCc2ccccc2)n1)C(=O)N[C@H](C(=O)O)c1ccccc1 (as salt: trifluoroacetate) [Example 144, (S)-3-[2-[[2-(3-benzyl-ureido)-thiazole-4-carbonyl]-amino]-acetyl-amino]-N-[(S)-carboxy-phenyl-methyl)-succinamic acid] | 126 to 130 °C |
